This is an account of results in ChEMBL document CHEMBL1138190, “Synthesis and antibacterial activity of novel C12 vinyl ketolides” (J Med Chem, 2006).

What all share (type): functional
Assay [1] relates to Haemophilus influenzae. Kind of assay: Antibacterial activity against Haemophilus influenzae 2762.
The subject of assay [2] is Staphylococcus aureus. As to the kind of experiment: Antibacterial activity against Staphylococcus aureus 29213.
The test system of assay [3] is Staphylococcus aureus. Kind of assay: Antibacterial activity against Staphylococcus aureus 33591.
Assay [4] relates to Staphylococcus epidermidis. Kind of assay: Antibacterial activity against Staphylococcus epidermidis 14990.
Assay [5] concerns Staphylococcus epidermidis. As to the kind of experiment: Antibacterial activity against Staphylococcus epidermidis f50654.
For assay [6], the system named is Enterococcus faecalis. As to the kind of experiment: Antibacterial activity against Enterococcus faecalis 29212.
The test system of assay [7] is Enterococcus faecalis. Kind of assay: Antibacterial activity against Enterococcus faecalis bc11148-2.
Assay [8] relates to Streptococcus pyogenes. Kind of assay: Antibacterial activity against Streptococcus pyogenes 8668.
Assay [9] concerns Streptococcus pneumoniae. Kind of assay: Antibacterial activity against Streptococcus pneumoniae 49619.
Assay [10] relates to Streptococcus pneumoniae. As to the kind of experiment: Antibacterial activity against Streptococcus pneumoniae 297-749.
Assay [11] relates to Streptococcus pneumoniae. As to the kind of experiment: Antibacterial activity against Streptococcus pneumoniae 280-962.
The test system of assay [12] is Streptococcus pneumoniae. As to the kind of experiment: Antibacterial activity against Streptococcus pneumoniae Erm 6849.
Assay [13] deals with Streptococcus pneumoniae. As to the kind of experiment: Antibacterial activity against Streptococcus pneumoniae Mef 5654.
For assay [14], the system named is Streptococcus pneumoniae. As to the kind of experiment: Antibacterial activity against Streptococcus pneumoniae Mef S 3427.
Assay [15] concerns Haemophilus influenzae. As to the kind of experiment: Antibacterial activity against Haemophilus influenzae 49247.

In brackets after ≈: the same amount, converted by molar mass.

`C=C[C@]12OC(=O)N(CCCCn3cc(-c4ccc(Cl)nc4)nc3C)[C@@H]1[C@@H](C)C(=O)[C@H](C)C[C@@](C)(OC)[C@H](O[C@@H]1O[C@H](C)C[C@H](N(C)C)[C@H]1O)[C@@H](C)C(=O)[C@@H](C)C(=O)O[C@@H]2CC`: the MIC was 1.56 µg/mL (≈ 1.79 µM) in assay [1]; 0.2 µg/mL (≈ 0.229 µM) in assay [2]; greater than 50 µg/mL in assay [3]; 0.1 µg/mL (≈ 0.115 µM) in [4]; 0.2 µg/mL (≈ 0.229 µM) in [5]; 0.1 µg/mL (≈ 0.115 µM) in assay [6]. The MIC in assay [7] was 3.13 µg/mL (≈ 3.59 µM); in assay [8], no more than 0.05 µg/mL; in assay [9], no more than 0.05 µg/mL; in [10], no more than 0.05 µg/mL; in [11], no more than 0.05 µg/mL; in assay [12], 0.4 µg/mL (≈ 0.458 µM). Also, the MIC in assay [13] was 0.78 µg/mL (≈ 0.894 µM); in assay [14] it was no more than 0.05 µg/mL; in assay [15], 6.25 µg/mL (≈ 7.16 µM).
Take `C=C[C@]12OC(=O)N(CCCCn3cnc(-c4ccc(O)nc4)c3)[C@@H]1[C@@H](C)C(=O)[C@H](C)C[C@@](C)(OC)[C@H](O[C@@H]1O[C@H](C)C[C@H](N(C)C)[C@H]1O)[C@@H](C)C(=O)[C@@H](C)C(=O)O[C@@H]2CC`: the MIC in [1] is 1.56 µg/mL (≈ 1.86 µM); in assay [2], 0.4 µg/mL (≈ 0.476 µM); in assay [3], greater than 50 µg/mL; in assay [4], 0.2 µg/mL (≈ 0.238 µM); in assay [5], 0.2 µg/mL (≈ 0.238 µM); in assay [6] it was 0.2 µg/mL (≈ 0.238 µM). Also, the MIC in [7] was 3.13 µg/mL (≈ 3.73 µM); in assay [8], no more than 0.05 µg/mL; in assay [9], no more than 0.05 µg/mL; in assay [10] it was no more than 0.05 µg/mL; in [11], no more than 0.05 µg/mL; in assay [12] it was 12.5 µg/mL (≈ 14.9 µM). Besides, the MIC in assay [13] amounted to 3.13 µg/mL (≈ 3.73 µM); in assay [14], 1.56 µg/mL (≈ 1.86 µM); in assay [15] it was 6.25 µg/mL (≈ 7.44 µM).
For the compound `C=C[C@]12OC(=O)N(CCCCn3cnc4ncccc43)[C@@H]1[C@@H](C)C(=O)[C@H](C)C[C@@](C)(OC)[C@H](O[C@@H]1O[C@H](C)C[C@H](N(C)C)[C@H]1O)[C@@H](C)C(=O)[C@@H](C)C(=O)O[C@@H]2CC`, the MIC was 0.78 µg/mL (≈ 0.977 µM) in assay [1]; 0.2 µg/mL (≈ 0.251 µM) in [2]; greater than 50 µg/mL in [3]; 0.1 µg/mL (≈ 0.125 µM) in assay [4]; 0.4 µg/mL (≈ 0.501 µM) in [5]; 0.1 µg/mL (≈ 0.125 µM) in assay [6]. Moreover, the MIC is 0.78 µg/mL (≈ 0.977 µM) in assay [7]; no more than 0.05 µg/mL in assay [8]; no more than 0.05 µg/mL in assay [9]; no more than 0.05 µg/mL in assay [10]; no more than 0.05 µg/mL in [11]; 3.13 µg/mL (≈ 3.92 µM) in assay [12]. Also, the results for the MIC in [13], in assay [14] and in assay [15] were 1.56 µg/mL (≈ 1.95 µM), 0.2 µg/mL (≈ 0.251 µM) and 1.56 µg/mL (≈ 1.95 µM), respectively.
For `C=C[C@]12OC(=O)N(CCCCn3ccc4c(N)cccc43)[C@@H]1[C@@H](C)C(=O)[C@H](C)C[C@@](C)(OC)[C@H](O[C@@H]1O[C@H](C)C[C@H](N(C)C)[C@H]1O)[C@@H](C)C(=O)[C@@H](C)C(=O)O[C@@H]2CC`, the MIC in assay [1] is 3.13 µg/mL (≈ 3.86 µM); in assay [2], 0.1 µg/mL (≈ 0.123 µM); in assay [3], greater than 50 µg/mL; in assay [4], 0.1 µg/mL (≈ 0.123 µM); in assay [5], 0.78 µg/mL (≈ 0.962 µM); in assay [6], no more than 0.05 µg/mL. The MIC in [7] is 0.625 µg/mL (≈ 0.771 µM); in [8], no more than 0.05 µg/mL; in assay [9], no more than 0.05 µg/mL; in [10], no more than 0.05 µg/mL; in assay [11] it was no more than 0.05 µg/mL; in assay [12] it was 3.13 µg/mL (≈ 3.86 µM). The values for the MIC in assay [13], in assay [14] and in assay [15] were 0.78 µg/mL (≈ 0.962 µM), 0.1 µg/mL (≈ 0.123 µM) and 3.13 µg/mL (≈ 3.86 µM), respectively.
As to `C=C[C@]12OC(=O)N(CCCCc3cnc(-c4cccnc4)s3)[C@@H]1[C@@H](C)C(=O)[C@H](C)C[C@@](C)(OC)[C@H](O[C@@H]1O[C@H](C)C[C@H](N(C)C)[C@H]1O)[C@@H](C)C(=O)[C@@H](C)C(=O)O[C@@H]2CC`, the MIC is 1.56 µg/mL (≈ 1.85 µM) in assay [1]; 0.1 µg/mL (≈ 0.119 µM) in assay [2]; greater than 50 µg/mL in assay [3]; 0.1 µg/mL (≈ 0.119 µM) in assay [4]; 0.1 µg/mL (≈ 0.119 µM) in assay [5]; no more than 0.05 µg/mL in assay [6]. Also, the MIC in [7] is 1.56 µg/mL (≈ 1.85 µM); in assay [8], no more than 0.05 µg/mL; in [9], no more than 0.05 µg/mL; in assay [10] it was no more than 0.05 µg/mL; in assay [11], no more than 0.05 µg/mL; in assay [12], 1.56 µg/mL (≈ 1.85 µM). Besides, the MIC in [13] was 0.4 µg/mL (≈ 0.476 µM); in [14], no more than 0.05 µg/mL; in [15], 3.13 µg/mL (≈ 3.72 µM).
Regarding `C=C[C@]12OC(=O)N(CCCCc3ccc(-c4cccnc4)s3)[C@@H]1[C@@H](C)C(=O)[C@H](C)C[C@@](C)(OC)[C@H](O[C@@H]1O[C@H](C)C[C@H](N(C)C)[C@H]1O)[C@@H](C)C(=O)[C@@H](C)C(=O)O[C@@H]2CC`, the MIC in [1] was 3.13 µg/mL (≈ 3.73 µM); in assay [2], 0.2 µg/mL (≈ 0.238 µM); in [3], 12.5 µg/mL (≈ 14.9 µM); in [4], 0.2 µg/mL (≈ 0.238 µM); in assay [5], 0.2 µg/mL (≈ 0.238 µM); in assay [6], 0.1 µg/mL (≈ 0.119 µM). Also, the MIC in assay [7] is 3.13 µg/mL (≈ 3.73 µM); in assay [8] it was 0.1 µg/mL (≈ 0.119 µM); in assay [9], no more than 0.05 µg/mL; in assay [10] it was no more than 0.05 µg/mL; in [11], no more than 0.05 µg/mL; in assay [12] it was 3.13 µg/mL (≈ 3.73 µM). Also, the results for the MIC in [13], in assay [14] and in [15] were 0.78 µg/mL (≈ 0.928 µM), 0.2 µg/mL (≈ 0.238 µM) and 3.13 µg/mL (≈ 3.73 µM), respectively.
